This is an account of results in patent US7785639B2, “Composition for treating cancer cells and preparation method for the same” (Kaohsiung Medical University, priority 2005, dated 2010).

One series concerns A549. The experiment in a line: MTT cytotoxic testing, A549. Type of series: cell-based. The following applies: average ± standard deviation (n = 2); for IC50: A549, human lung cancer cell line; for IC50 A549: human lung cancer cell line. Background: Tetrazolium dyes change colour on reduction, which living cells bring about.
A further series has as its system Hep 3B. The experiment in a line: MTT cytotoxic testing, Hep 3B. The following applies: human liver cancer cell line, average ± standard deviation (n = 2); for IC50: Hep3B. In kind it is cell-based.
Another series deals with MDA-MB-231. The experiment in a line: MTT cytotoxic testing, MDA-MB-231. Type of series: cell-based. The note with it: average ± standard deviation (n = 2); for IC50: MDA-MB-231, human breast cancer cell line; for IC50 MDA-MB-231: human breast cancer cell line.
The subject of the next series is MCF-7. The experiment in a line: MTT cytotoxic testing, MCF-7. The note with it: average ± standard deviation (n = 2); for IC50: MCF7, human breast cancer cell line; for IC50 MCF-7: human breast cancer cell line. Type of series: cell-based.
A further series relates to Hep G2. The experiment in a line: MTT cytotoxic testing, Hep G2. Type of series: cell-based. The following applies: average ± standard deviation (n = 2); for IC50: HepG2, human liver cancer cell line; for IC50 Hep G2: human liver cancer cell line.
Series [1] has as its system five human cancer cell lines.
Series [2] relates to MCF-10A.
Series [3] deals with MCF-10A. The series is described as follows: cells. The following applies: Homo sapiens, read-out: IC50 MCF-10A.

Converted amounts (≈) assume the structure as drawn.

As to `COc1cccc2c1C(=O)c1c(O)c3c(c(O)c1C2=O)C[C@@](O)(C(=O)CO)C[C@@H]3O[C@H]1C[C@H](N)[C@H](O)[C@H](C)O1` [Compound E, Doxorubicin, reference compound], the 50% inhibitory concentration (IC50) (as a rule, the concentration at which inhibition is half-maximal) with A549 was 0.36 ± 0.04 µg/mL (≈ 0.662 µM); with Hep 3B it was 0.26 ± 0.06 µg/mL (≈ 0.478 µM); in the series on MDA-MB-231 it was 0.31 ± 0.02 µg/mL (≈ 0.57 µM); with MCF-7, 0.32 ± 0.08 µg/mL (≈ 0.589 µM); in the series with Hep G2, 0.15 µg/mL (≈ 0.276 µM).

Regarding `O=C1C=CC(O)(c2cc(=O)c3c(O)cc(O)cc3o2)C=C1` [Compound A, Protoapigenone], the 50% inhibitory concentration (IC50) in the series on A549 stood at 3.88 ± 0.02 µg/mL (≈ 13.6 µM); in the series on Hep 3B, 0.23 ± 0.01 µg/mL (≈ 0.804 µM); with MDA-MB-231 it was 0.27 ± 0.02 µg/mL (≈ 0.943 µM); in the series on MCF-7, 0.78 ± 0.02 µg/mL (≈ 2.72 µM); with MCF-10A [3] it was 7.9 ± 1.3 µg/mL (≈ 27.6 µM); in the series with Hep G2, 1.6 ± 0.33 µg/mL (≈ 5.59 µM). Moreover, the “cytotoxic activities on cancer cells” value in series [1] is reported as “good cytotoxic activities”. In the series with MCF-10A [2], the “cytotoxicity to normal human breast epidermal cells” value is on record as “weak cytotoxicity”.

On to `COC1CC(=O)C=CC1(O)c1cc(=O)c2c(O)cc(O)cc2o1` (stereo not drawn) [Compound B, 5′,6′-Dihydro-6′-methoxy-protoapigenone], for which the “IC50 A549” value in the series on A549 was determined as 13.30 ± 0.23 µg/mL (≈ 41.8 µM). Moreover, the “IC50 Hep 3B” value in the series on Hep 3B is 1.74 ± 0.08 µg/mL (≈ 5.47 µM). In addition, the “IC50 MDA-MB-231” value in the series on MDA-MB-231 stood at 1.30 ± 0.10 µg/mL (≈ 4.08 µM). Besides, in series [1], the “cytotoxic activities on cancer cells” value is listed as “good cytotoxic activities”. In addition, the “IC50 MCF-7” value with MCF-7 was found to be 5.92 ± 0.29 µg/mL (≈ 18.6 µM). Besides, in the series with Hep G2, the “IC50 Hep G2” value amounted to 5.88 ± 0.47 µg/mL (≈ 18.5 µM).

Turning to `O=c1cc(C2(O)C=CC(O)C=C2)oc2cc(O)cc(O)c12` (stereo not drawn) [Compound C, Protoapigenin], the “IC50 A549” value in the series on A549 was found to be 18.84 ± 0.60 µg/mL (≈ 65.4 µM). Further, the “IC50 Hep 3B” value with Hep 3B is 20.00 ± 0.58 µg/mL (≈ 69.4 µM). In addition, the “IC50 MDA-MB-231” value in the series with MDA-MB-231 was “— (Without the cytotoxical activity in the concentration of 20 μg/ml)”. Also, in series [1], the “cytotoxic activities on cancer cells” value is on record as “good cytotoxic activities”. For the same molecule, the “IC50 MCF-7” value with MCF-7 is reported as “— (Without the cytotoxical activity in the concentration of 20 μg/ml)”. Also, in the series on Hep G2, the “IC50 Hep G2” value was 1.60 ± 0.33 µg/mL (≈ 5.55 µM).

For the molecule `COC1(OC)CCC(O)(c2cc(=O)c3c(O)cc(O)cc3o2)CC1` [Compound D, 5,7-dihydroxy-2-(1-hydroxy-4,4-dimethoxy-cyclohexyl)-chromen-4-one], the IC50 with A549, in the series on Hep 3B, in the series on MDA-MB-231, in the series with MCF-7 and in the series with Hep G2 was over 20 µg/mL in each case.
